Data published in patent US10947242B2, “[1,2,4]triazolo[1,5and#8208;A]pyrimidine compounds as PDE2 inhibitors” (Janssen Pharmaceutica NV, priority 2016, dated 2021).
Where two headings read alike, the source gives them in different places.

Legend:
Type in all cases: biochemical
[1] = biological target: T1, Human recombinant PDE3A (hPDE3A) (Homo sapiens, UniProt Q14432); assay: In vitro assay PDE3A (SPA, 3H-cAMP hydrolysis); conditions: for IC50: hPDE3B pIC50, read-out: pIC50 (converted); for Emax: read-out: hPDE3B Emax, read-out: Emax;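 on all read-outs here: the method names PDE3A and the table heading PDE3B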
T1 construct: purchased Scottish Biomedical; host or cells: Sf9 insect cells
T1 sequence (Q14432 whole entry): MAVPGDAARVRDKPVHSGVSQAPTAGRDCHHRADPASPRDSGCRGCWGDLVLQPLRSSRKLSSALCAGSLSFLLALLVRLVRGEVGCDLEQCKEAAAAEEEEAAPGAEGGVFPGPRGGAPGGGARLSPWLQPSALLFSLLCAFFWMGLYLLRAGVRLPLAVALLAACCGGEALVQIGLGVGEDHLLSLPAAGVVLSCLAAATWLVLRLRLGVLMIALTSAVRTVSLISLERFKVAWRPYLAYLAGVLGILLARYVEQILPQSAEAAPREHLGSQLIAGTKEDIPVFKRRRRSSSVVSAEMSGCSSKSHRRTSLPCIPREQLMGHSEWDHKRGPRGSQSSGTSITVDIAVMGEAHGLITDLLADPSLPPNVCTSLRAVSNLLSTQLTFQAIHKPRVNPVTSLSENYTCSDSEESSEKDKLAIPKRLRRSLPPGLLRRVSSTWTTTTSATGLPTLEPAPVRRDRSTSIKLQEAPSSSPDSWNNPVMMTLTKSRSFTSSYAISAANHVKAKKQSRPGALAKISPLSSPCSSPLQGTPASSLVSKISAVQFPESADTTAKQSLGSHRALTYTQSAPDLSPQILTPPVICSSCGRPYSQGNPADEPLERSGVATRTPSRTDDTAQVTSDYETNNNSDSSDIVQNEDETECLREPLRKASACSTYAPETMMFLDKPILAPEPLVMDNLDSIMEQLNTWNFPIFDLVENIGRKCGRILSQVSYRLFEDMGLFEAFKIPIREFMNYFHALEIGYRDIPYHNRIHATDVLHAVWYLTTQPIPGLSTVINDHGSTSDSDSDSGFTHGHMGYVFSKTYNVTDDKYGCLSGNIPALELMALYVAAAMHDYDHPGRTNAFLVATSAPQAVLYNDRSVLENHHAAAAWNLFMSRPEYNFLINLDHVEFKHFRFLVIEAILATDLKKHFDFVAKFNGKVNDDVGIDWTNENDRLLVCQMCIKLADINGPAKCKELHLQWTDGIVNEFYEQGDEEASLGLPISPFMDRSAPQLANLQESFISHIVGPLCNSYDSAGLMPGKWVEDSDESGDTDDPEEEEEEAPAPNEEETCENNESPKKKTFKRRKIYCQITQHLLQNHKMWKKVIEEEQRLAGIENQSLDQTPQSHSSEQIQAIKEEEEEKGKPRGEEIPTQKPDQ
In short: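 Human PDE3A, cloned from brain, as partially purified Sf9 lysate. Substrate 0.4 μM cAMP plus [3H]-cAMP (2.4 μCi/ml final) in 50 mM Tris pH 7.8, 8.3 mM MgCl2, 1.7 mM EGTA, 60 min at room temperature, 1% DMSO final. Hydrolysis read by SPA scintillation counting against no-enzyme blanks and DMSO controls.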

[2] = biological target: T2, Human recombinant PDE2A (hPDE2A) (Homo sapiens, UniProt O00408); assay: In vitro assay PDE2A (SPA, 3H-cGMP hydrolysis); conditions: for Emax: read-out: hPDE2A Emax
T2 construct: His tag (inferred from metal chelate purification); made in house; host or cells: Sf9 insect cells (baculovirus)
T2 sequence (O00408 whole entry): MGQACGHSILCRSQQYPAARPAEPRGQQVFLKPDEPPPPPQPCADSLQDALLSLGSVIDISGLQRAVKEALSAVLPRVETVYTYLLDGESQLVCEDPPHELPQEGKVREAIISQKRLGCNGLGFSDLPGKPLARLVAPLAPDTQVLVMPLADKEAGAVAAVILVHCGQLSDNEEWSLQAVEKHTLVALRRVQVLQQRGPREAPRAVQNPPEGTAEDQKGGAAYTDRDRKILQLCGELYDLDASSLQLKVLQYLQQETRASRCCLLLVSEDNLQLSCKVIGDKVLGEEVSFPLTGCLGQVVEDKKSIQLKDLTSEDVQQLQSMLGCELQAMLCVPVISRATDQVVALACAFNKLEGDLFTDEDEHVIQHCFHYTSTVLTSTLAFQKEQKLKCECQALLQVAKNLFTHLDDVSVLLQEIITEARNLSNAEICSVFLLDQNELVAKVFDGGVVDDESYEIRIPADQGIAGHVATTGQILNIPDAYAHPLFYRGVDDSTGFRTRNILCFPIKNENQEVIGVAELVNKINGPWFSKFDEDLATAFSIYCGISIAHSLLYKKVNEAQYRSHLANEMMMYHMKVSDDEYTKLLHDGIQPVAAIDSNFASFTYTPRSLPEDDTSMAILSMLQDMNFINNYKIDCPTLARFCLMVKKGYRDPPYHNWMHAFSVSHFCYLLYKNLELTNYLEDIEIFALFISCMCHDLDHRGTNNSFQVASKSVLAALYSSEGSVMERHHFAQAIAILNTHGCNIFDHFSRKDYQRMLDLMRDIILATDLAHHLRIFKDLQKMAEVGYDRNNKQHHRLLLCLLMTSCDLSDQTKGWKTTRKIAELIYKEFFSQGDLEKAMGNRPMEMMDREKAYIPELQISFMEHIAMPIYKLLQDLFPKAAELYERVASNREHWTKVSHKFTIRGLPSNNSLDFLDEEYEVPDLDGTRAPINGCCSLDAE

[3] = biological target: T3, Human recombinant PDE10A (hPDE10A) (Homo sapiens, UniProt Q9Y233); assay: In vitro assay PDE10A, human clone (SPA, 3H-cAMP hydrolysis)
T3 construct: His tag (inferred from metal chelate purification); made in house; host or cells: Sf9 insect cells (baculovirus)
T3 sequence (Q9Y233 267-1055): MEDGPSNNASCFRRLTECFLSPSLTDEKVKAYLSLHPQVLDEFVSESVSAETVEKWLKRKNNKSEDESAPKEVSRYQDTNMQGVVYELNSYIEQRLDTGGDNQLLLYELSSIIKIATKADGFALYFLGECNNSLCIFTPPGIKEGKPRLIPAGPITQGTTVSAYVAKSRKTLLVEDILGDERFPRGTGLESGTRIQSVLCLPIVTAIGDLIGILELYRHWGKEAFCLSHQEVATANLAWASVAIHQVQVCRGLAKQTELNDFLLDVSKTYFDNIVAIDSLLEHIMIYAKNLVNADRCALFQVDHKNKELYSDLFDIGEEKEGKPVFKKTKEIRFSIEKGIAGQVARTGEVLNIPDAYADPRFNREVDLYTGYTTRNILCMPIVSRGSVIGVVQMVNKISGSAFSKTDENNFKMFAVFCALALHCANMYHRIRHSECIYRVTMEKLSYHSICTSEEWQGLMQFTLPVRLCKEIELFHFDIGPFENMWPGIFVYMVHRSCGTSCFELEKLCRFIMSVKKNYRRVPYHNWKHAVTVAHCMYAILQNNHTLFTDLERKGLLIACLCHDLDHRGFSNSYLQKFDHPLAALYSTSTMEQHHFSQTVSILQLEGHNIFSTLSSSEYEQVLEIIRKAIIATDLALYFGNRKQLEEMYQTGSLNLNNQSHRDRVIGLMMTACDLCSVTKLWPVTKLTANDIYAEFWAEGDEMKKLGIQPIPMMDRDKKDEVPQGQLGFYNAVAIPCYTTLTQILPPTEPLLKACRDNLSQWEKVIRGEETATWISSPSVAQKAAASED
In short: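 Human recombinant PDE10A was expressed in Sf9 cells via baculovirus and incubated with compound in 50 mM Tris pH 7.8, 8.3 mM MgCl2, 1.7 mM EGTA. Substrate was 60 nM cAMP plus 0.008 μCi 3H-cAMP for 60 min at room temperature, read by SPA scintillation counting. Controls used 1% DMSO, and blanks omitted enzyme.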

[4] = human recombinant PDE2A, 10 μM cGMP substrate, read-out: hPDE2A pIC50 (converted)
[5] = read-out: hPDE2A pIC50 (converted)
[6] = human clone (h), default, read-out: hPDE10A2 Emax
[7] = human clone (h), default, read-out: hPDE10A2 pIC50 (converted)
[8] = human clone by default (no (r) mark), read-out: hPDE10A2 or rPDE10A2 Emax
[9] = human clone by default (no (r) mark), read-out: hPDE10A2 or rPDE10A2 pIC50 (converted)

IC50 [1] | Emax [1] | IC50 [2, 4] | Emax ([2]; human recombinant PDE2A) | Emax [2] | IC50 [2, 5] | Emax [3, 6] | IC50 [3, 7] | Emax [3, 8] | IC50 [3, 9] | SMILES | IC50 ([2]; hPDE2A pIC50)
1740 nM | 88% | 20.9 nM | 97% | 97% | 20.9 nM | 94% | 269 nM | 94% | 269 nM | C[C@@H]1CCN(C(=O)c2cccc(OC(F)(F)F)c2F)C[C@H]1c1cc(C(F)F)nc2ncnn12 [Compound 241] | 
6170 nM | 67% | 135 nM | 97% | 97% | 135 nM | 56% | 8130 nM | 56% | 8130 nM | C[C@@H]1CCN(C(=O)c2ccc(C(F)(F)F)nc2Cl)C[C@H]1c1cc(C(F)F)nc2ncnn12 [Compound 242] | 
> 10000 nM | 13% | 132 nM | 99% | 99% | 132 nM | 70% | 3630 nM | 70% | 3630 nM | C[C@@H]1CCN(C(=O)c2ccno2)C[C@H]1c1cc(C(F)F)nc2ncnn12 [Compound 243] | 
> 10000 nM | 12% |  |  | 92% | 676 nM | 54% | 9330 nM | 54% | 9330 nM | Cc1ncc(C(=O)N2CC[C@@H](C)[C@H](c3cc(C(F)F)nc4ncnn34)C2)cn1 [Compound 244] | 
5890 nM | 62% |  |  | 99% | 123 nM | 79% | 2190 nM | 79% | 2190 nM | C[C@@H]1CCN(C(=O)c2ccc(F)c(F)c2F)C[C@H]1c1cc(C(F)F)nc2ncnn12 [Compound 245] | 
> 10000 nM | 25% |  |  | 98% | 126 nM | 44% | > 10000 nM | 44% | > 10000 nM | CCCOc1cccnc1C(=O)N1CC[C@@H](C)[C@H](c2cc(C(F)F)nc3ncnn23)C1 [Compound 246] | 
2040 nM | 85% |  |  | 98% | 155 nM | 77% | 2880 nM | 77% | 2880 nM | COc1c(C(=O)N2CC[C@@H](C)[C@H](c3cc(C(F)F)nc4ncnn34)C2)cccc1C(F)(F)F [Compound 247] | 
> 10000 nM | 2% |  |  | 95% | 347 nM | 49% | 10500 nM | 49% | 10500 nM | C[C@@H]1CCN(C(=O)c2ccnnc2)C[C@H]1c1cc(C(F)F)nc2ncnn12 [Compound 248] | 
> 10000 nM | 10% |  |  | 95% | 372 nM | 45% | > 10000 nM | 45% | > 10000 nM | C[C@@H]1CCN(C(=O)c2cncnc2)C[C@H]1c1cc(C(F)F)nc2ncnn12 [Compound 249] | 
> 10000 nM | 28% |  |  | 99% | 132 nM | 64% | 4900 nM | 64% | 4900 nM | C[C@@H]1CCN(C(=O)c2cc(F)ccn2)C[C@H]1c1cc(C(F)F)nc2ncnn12 [Compound 250] | 
> 10000 nM | 17% |  |  | 98% | 282 nM | 53% | 8710 nM | 53% | 8710 nM | C[C@@H]1CCN(C(=O)c2ccc(F)cn2)C[C@H]1c1cc(C(F)F)nc2ncnn12 [Compound 251] | 
> 10000 nM | 17% |  |  | 96% | 708 nM | 66% | 6760 nM | 66% | 6760 nM | Cc1nc(C(=O)N2CC[C@@H](C)[C@H](c3cc(C(F)F)nc4ncnn34)C2)c(C)o1 [Compound 252] | 
> 10000 nM | 17% |  |  | 95% | 457 nM | 39% | > 10000 nM | 39% | > 10000 nM | C[C@@H]1CCN(C(=O)c2ncccc2C(F)(F)F)C[C@H]1c1cc(C(F)F)nc2ncnn12 [Compound 253] | 
> 10000 nM | 25% |  |  | 99% | 107 nM | 70% | 3800 nM | 70% | 3800 nM | C[C@@H]1CCN(C(=O)c2ccc(F)nc2)C[C@H]1c1cc(C(F)F)nc2ncnn12 [Compound 254] | 
> 10000 nM | 28% |  |  | 95% | 269 nM | 58% | 7760 nM | 58% | 7760 nM | C[C@@H]1CCN(C(=O)c2cnc(CF)cn2)C[C@H]1c1cc(C(F)F)nc2ncnn12 [Compound 255] | 
> 10000 nM | 12% |  |  | 97% | 324 nM | 48% |  | 48% |  | C[C@@H]1CCN(C(=O)c2ccncn2)C[C@H]1c1cc(C(F)F)nc2ncnn12 [Compound 256] | 
> 10000 nM | 15% |  |  | 95% | 263 nM | 45% | > 10000 nM | 45% | > 10000 nM | C[C@@H]1CCN(C(=O)c2cnccn2)C[C@H]1c1cc(C(F)F)nc2ncnn12 [Compound 257] | 
1550 nM | 89% |  |  | 99% | 151 nM | 90% | 1260 nM | 90% | 1260 nM | C[C@@H]1CCN(C(=O)c2cc(C(C)(C)C)on2)C[C@H]1c1cc(C(F)F)nc2ncnn12 [Compound 258] | 
> 10000 nM | 23% |  |  | 97% | 138 nM | 74% | 2950 nM | 74% | 2950 nM | Cc1oncc1C(=O)N1CC[C@@H](C)[C@H](c2cc(C(F)F)nc3ncnn23)C1 [Compound 260] | 
> 10000 nM | 19% |  |  | 95% | 363 nM | 45% | > 10000 nM | 45% | > 10000 nM | C[C@@H]1CCN(C(=O)c2nccnc2N)C[C@H]1c1cc(C(F)F)nc2ncnn12 [Compound 261] | 
> 10000 nM | 37% |  |  | 101% | 155 nM | 74% | 3240 nM | 74% | 3240 nM | C[C@@H]1CCN(C(=O)c2cccnc2F)C[C@H]1c1cc(C(F)F)nc2ncnn12 [Compound 262] | 
4900 nM | 65% |  |  | 99% | 129 nM | 64% | 5130 nM | 64% | 5130 nM | Cc1nc(C(F)(F)F)ccc1C(=O)N1CC[C@@H](C)[C@H](c2cc(C(F)F)nc3ncnn23)C1 [Compound 263] | 
10500 nM | 47% |  |  | 100% | 105 nM | 74% | 3310 nM | 74% | 3310 nM | Cc1nc(C)c(C(=O)N2CC[C@@H](C)[C@H](c3cc(C(F)F)nc4ncnn34)C2)s1 [Compound 264] | 
6310 nM | 55% |  |  | 102% | 2.4 nM | 98% | 37.2 nM | 98% | 37.2 nM | COc1ccc(C(=O)N2CC[C@@H](C)[C@H](c3cc(C(F)F)nc4ncnn34)C2)cc1C#N [Compound 265] | 
5370 nM | 74% |  |  | 100% | 417 nM | 89% | 2630 nM | 89% | 2630 nM | C[C@@H]1CCN(C(=O)c2cc(C(C)(C)C)nc(C(C)(C)C)c2)C[C@H]1c1cc(C(F)F)nc2ncnn12 [Compound 266] | 
> 10000 nM | 13% |  |  | 82% | 1910 nM | 39% | > 10000 nM | 39% | > 10000 nM | C[C@@H]1CCN(C(=O)c2c(Cl)cncc2Cl)C[C@H]1c1cc(C(F)F)nc2ncnn12 [Compound 268] | 

SMILES | IC50 [1] | Emax [1] | IC50 [2, 4] | Emax ([2]; human recombinant PDE2A) | Emax [2] | IC50 [2, 5] | Emax [3, 6] | IC50 [3, 7] | Emax [3, 8] | IC50 [3, 9] | IC50 ([2]; hPDE2A pIC50)
C[C@@H]1CCN(C(=O)c2cc(C(C)(C)C)cc(C(C)(C)C)c2)C[C@H]1c1cc(C(F)F)nc2ncnn12 [Compound 259] | 3550 nM | 82% |  |  | 99% |  | 92% | 1700 nM | 92% | 1700 nM | 427 nM
Cc1cc(C(=O)N2[C@H]3CC[C@@H]2[C@H](c2cc(C(F)F)nc4ncnn24)CC3)cc(C2CC2)n1 [Compound 274] | > 10000 nM | 7% |  |  | 97% | 288 nM | 63% | 6030 nM | 63% | 6030 nM | 
